In one experiment the test system is BRIN-BD11 cells. Briefly: In vitro insulin secretion from BRIN-BD11 cells. The experiment is classed as cell-based. As to the method: BRIN-BD11 cells were used to assess the insulin releasing activity of polypeptides as described by […] et al., 1996 (Diabetes. 1996 August; 45(8):1132-40). Cells were cultured in RPMI-1640 growth media supplemented with 10% (v/v) foetal bovine serum (FBS) and 1% (v/v) antibiotics (penicillin (100 U/ml), streptomycin ([…])), in 75 cm2 sterile tissue culture flasks (Greiner bio-one, UK) maintained at 37° C. and 5% CO2 in a LEEC incubator (Laboratory technical engineering, Nottingham, UK). BRIN-BD11 cells were then seeded at a density of 150,000 cells/well in 24-well plates (Nunc, Roskilde, Denmark) and allowed to attach overnight at 37° C.

A further experiment has as its system lean control mice. Briefly: Acute and persistent glucose lowering and insulin releasing effects in lean control mice. The experiment is classed as in vivo. As to the method: All animal experiments were carried out in accordance with the UK Animals (Scientific Procedures) Act 1986. For food intake studies, fasted (18 h) mice were given intraperitoneal (i.p) injections of polypeptides at a dose of 25, 100 or 250 nmol/kg bw. Mice were then allowed free access to normal chow for 180 mins and cumulative food intake measured. […] Blood samples were collected from the cut tip on the tail vein of conscious mice into chilled fluoride/heparin glucose micro-centrifuge tubes (Sarstedt, Numbrecht, Germany) at the time points indicated in the Drawings. Blood glucose was measured directly using a hand-held Ascencia Contour blood glucose meter (Bayer Healthcare, Newbury, Berkshire, UK).

For experiment [1], the system named is high fat fed mice. Briefly: Glucose tolerance test after 21 days treatment. The experiment is classed as in vivo. As to the method: Twice daily (09:30 and 17:30 h) i.p. injections of saline vehicle (0.9% w/v NaCl), polypeptides (at 25 nmol/kg bw) were administered for 21 days in high fat mice. Energy intake and body weight were monitored daily, and non-fasting blood glucose and plasma insulin concentrations were assessed at 3 day intervals. On day 21, a non-fasted 24 h glucose profile was conducted. At the end of the treatment period, i.p. glucose tolerance (18 mmol/kg bw), biological response to GIP (18 mmol/kg glucose in combination with native GIP (25 nmol/kg); i.p.) and insulin sensitivity (15 U/kg bw; i.p.) tests were performed. HOMA-IR was determined using the equation HOMA-IR=fasting glucose (mmol/l)×fasting insulin (mU/l)/22.5. All test solutions were administered in a final volume of 5 ml/kg body weight, at 10:00 h without previous 09:30 h peptide injection. Terminal analysis included measurement of total body fat and lean mass by DEXA scanning (Piximus Densitometer, Inside Outside Sales, Madison Wis., USA) and extraction of pancreatic tissue for analysis as detailed below. Immunohistochemistry Pancreatic tissue was excised, divided longitudinally and either immediately snap frozen for subsequent extraction of insulin using acid ethanol extraction (5 ml/g) as described by Irwin et al., 2015 (Diabetes. 2015 August; 64(8):2996-3009), or processed for immunohistochemical examination. Briefly, pancreatic tissues were fixed in 4% parafolmaldehyde at 4° C. for 48 h. Pancreata were then embedded in paraffin wax and processed using an automated tissue processor (Leica TP1020, Leica Microsystems, Nussloch, Germany). Immunohistochemistry was performed as described by Vasu et al., 2014 (PLoS One. 2014 Jun. 26; 9(6):e101005). Succinctly, tissue sections were deparaffinised, rehydrated and probed with primary antibodies: mouse anti-insulin antibody (1:500; Abcam, ab6995) or guinea-pig anti-glucagon antibody (PCA2/4, 1:400; raised in-house). The sections were then incubated with secondary antibody, Alexa Fluor 488 goat anti-guinea pig IgG (1:400) or Alexa Fluor 594 goat anti-mouse IgG (1:400); respectively. […] Islet parameters were analysed using Cell^F image analysis software (Olympus Soft Imaging Solutions, GmbH).
Tests were conducted after twice daily treatment with saline vehicle (0.9% (w/v) NaCl), (DAla^2)GIP and (DAla^2)GIP/xenin-8-Gln (each at 25 nmol/kg bw) for 21 days. For glucose tolerance test, blood glucose and plasma insulin concentrations were measured before and 15, 30, 60 and 105 min after i.p injection of glucose (18 mmol/kg bw). For metabolic response to GIP, blood glucose and plasma insulin concentrations were measured before and 15, 30, 60 and 105 min after i.p injection of glucose (18 mmol/kg bw) in combination with GIP (25 nmol/kg bw). […]

For experiment [2], the system named is high fat fed mice. As to the kind of experiment: Insulin sensitivity test and HOMA-IR after 21 days treatment. The experiment is classed as in vivo. The method, then: On day 21, a non-fasted 24 h glucose profile was conducted. […] HOMA-IR was determined using the equation HOMA-IR=fasting glucose (mmol/l)×fasting insulin (mU/l)/22.5. […] Terminal analysis included measurement of total body fat and lean mass by DEXA scanning (Piximus Densitometer, Inside Outside Sales, Madison Wis., USA) and extraction of pancreatic tissue for analysis as detailed below. […] Briefly, pancreatic tissues were fixed in 4% parafolmaldehyde at 4° C. for 48 h. Pancreata were then embedded in paraffin wax and processed using an automated tissue processor (Leica TP1020, Leica Microsystems, Nussloch, Germany). Immunohistochemistry was performed as described by Vasu et al., 2014 (PLoS One. 2014 Jun. 26; 9(6):e101005). […] Abcam, ab6995) or guinea-pig anti-glucagon antibody (PCA2/4, 1:400; raised in-house). […] The slides were viewed under a FITC (488 nm) or TRITC filter (594 nm) using a fluorescent microscope (Olympus system microscope, model BX51) and photographed using a DP70 camera adapter system. Islet parameters were analysed using Cell^F image analysis software (Olympus Soft Imaging Solutions, GmbH).

The mark [3] stands for this setting: 25 nmol/kg 4 h before glucose 18 mmol/kg, vs saline.
[4] abbreviates: 0-105 min, glucose 18 mmol/kg i.p., 18 h fasted, after 21 days 25 nmol/kg twice daily, mean ± SEM.
The mark [5] stands for this setting: 21 days treatment, vs high fat controls.

Regarding `CC[C@H](C)[C@H](NC(=O)[C@H](CO)NC(=O)[C@H](Cc1ccc(O)cc1)NC(=O)[C@H](CC(=O)O)NC(=O)[C@H](CO)NC(=O)[C@@H](NC(=O)[C@H](Cc1ccccc1)NC(=O)[C@@H](NC(=O)CNC(=O)[C@H](CCC(=O)O)NC(=O)[C@@H](C)NC(=O)[C@@H](N)Cc1ccc(O)cc1)[C@@H](C)O)[C@@H](C)CC)C(=O)N[C@@H](C)C(=O)N[C@@H](CCSC)C(=O)N[C@@H](CC(=O)O)C(=O)N[C@@H](CCCCN)C(=O)N[C@H](C(=O)N[C@@H](Cc1c[nH]cn1)C(=O)N[C@@H](CCC(N)=O)C(=O)N[C@@H](CCC(N)=O)C(=O)N[C@@H](CC(=O)O)C(=O)N[C@@H](Cc1ccccc1)C(=O)N[C@H](C(=O)N[C@@H](CC(N)=O)C(=O)N[C@@H](Cc1c[nH]c2ccccc12)C(=O)N[C@@H](CC(C)C)C(=O)N[C@@H](CC(C)C)C(=O)N[C@@H](C)C(=O)N[C@@H](CCC(N)=O)C(=O)N[C@@H](CCCCN)C(=O)NCC(=O)N[C@@H](CCCCN)C(=O)N[C@@H](CCCCN)C(=O)N[C@@H](CC(N)=O)C(=O)N[C@@H](CC(=O)O)C(=O)N[C@@H](Cc1c[nH]c2ccccc12)C(=O)N[C@@H](CCCCN)C(=O)N[C@@H](Cc1c[nH]cn1)C(=O)N[C@@H](CC(N)=O)C(=O)N[C@H](C(=O)N[C@H](C(=O)N[C@@H](CCC(N)=O)C(=O)O)[C@@H](C)O)[C@@H](C)CC)C(C)C)[C@@H](C)CC` [(DAla2)GIP, TYR-(d)ALA-GLU-GLY-THR-PHE-ILE-SER-ASP-TYR-SER-ILE-ALA-MET-ASP-LYS-ILE-HIS-GLN-GLN-ASP-PHE-VAL-ASN-TRP-LEU-LEU-ALA-GLN-LYS-GLY-LYS-LYS-ASN-ASP-TRP-LYS-HIS-ASN-ILE-THR-GLN], the “Insulin secretion from BRIN-BD11 cells” value with BRIN-BD11 cells (10^−6 mol/l peptide, 20 min, vs 5.6 and 16.7 mmol/l glucose control) is listed as “significantly (P<0.05 to P<0.001) stimulated insulin secretion”. Also, in the experiment on BRIN-BD11 cells (10^−8 M peptide, vs 5.6 and 16.7 mmol/l glucose controls respectively), the “Insulin release from BRIN-BD11 cells” value was “significant (P<0.001 and P<0.01; respectively) increases in insulin release”. Besides, in the experiment with lean control mice (setting [3]), the “Overall AUC blood glucose, peptide 4 h prior to glucose load” value is given as “significantly reduced” and the “Plasma insulin AUC, peptide 4 h prior to glucose load” value was “increased plasma insulin AUC values (P<0.05)”. Also, the “Blood glucose at 15 min post-injection” value in the experiment with lean control mice (25 nmol/kg with glucose 18 mmol/kg i.p.) is given as “significant (P<0.05) reduction in blood glucose levels”. Besides, the “Blood glucose at 30 min post injection” value in the experiment with lean control mice (25 nmol/kg with glucose 18 mmol/kg i.p., non-fasted mice, vs glucose alone) was “significantly (P<0.05) lowered blood glucose values”. Moreover, the “Overall 0-105 min AUC blood glucose” value in the experiment on lean control mice (25 nmol/kg with glucose 18 mmol/kg i.p., vs glucose alone) is listed as “significantly (P<0.05) decreased”. Besides, in the experiment on high fat fed mice [1] (setting [4]), the “Glucose tolerance test Blood glucose AUC” value is listed as 1714.7 ± 138.6^Δ mmol/l · min and the “Glucose tolerance test Plasma insulin AUC” value is recorded as 65.4 ± 9.2^Δ ng/ml · min. In addition, the “Glucose-stimulated plasma insulin AUC” value in the experiment with high fat fed mice [1] (setting [5]) is on record as “reduced, albeit non-significantly”. Further, the “Overall AUC blood glucose following a glucose load” value in the experiment with high fat fed mice [1] (21 days treatment, vs saline controls) is “strong tendency to reduce overall AUC blood glucose levels”. In addition, the HOMA-IR insulin sensitivity entry with high fat fed mice [2] (setting [5]) is reported as “significantly (P<0.05) improved insulin sensitivity”. The “Individual blood glucose levels following exogenous insulin” value in the experiment on high fat fed mice [2] (insulin 15 U/kg i.p., day 21, vs high fat controls) is “reduced, albeit non-significantly”. The “Overall glucose lowering effect of insulin (blood glucose AAC 0-60 min)” value with high fat fed mice [2] (insulin 15 U/kg i.p., day 21, vs saline control high fat mice) is recorded as “significantly (P<0.001) improved”.

The values above are taken from patent US11738065B2, “Polypeptides and analogues thereof for use in the treatment of diabetes and bone disorders” (UNIVERSITY OF ULSTER, priority 2015, dated 2023).
